Experiments:
human 11β-HSD2 = molecular target: T1, human 11β-HSD2 (Homo sapiens, UniProt P80365); assay: Assay of enzyme inhibitory activity, human 11β-HSD2 (lysate of stably expressing HEK293 cells, cortisol ELISA); format: biochemical; conditions: Table 1; human 11β-HSD2, cell lysate, 100 nmol/L substrate, 37° C. 1 hour
T1 construct: The obtained PCR products of about 0.9 kbp, 1.2 kbp, and 0.9 kbp were subcloned into an expression vector pcDNA3.1+/Zeo; made in house
T1 sequence (P80365 1-405): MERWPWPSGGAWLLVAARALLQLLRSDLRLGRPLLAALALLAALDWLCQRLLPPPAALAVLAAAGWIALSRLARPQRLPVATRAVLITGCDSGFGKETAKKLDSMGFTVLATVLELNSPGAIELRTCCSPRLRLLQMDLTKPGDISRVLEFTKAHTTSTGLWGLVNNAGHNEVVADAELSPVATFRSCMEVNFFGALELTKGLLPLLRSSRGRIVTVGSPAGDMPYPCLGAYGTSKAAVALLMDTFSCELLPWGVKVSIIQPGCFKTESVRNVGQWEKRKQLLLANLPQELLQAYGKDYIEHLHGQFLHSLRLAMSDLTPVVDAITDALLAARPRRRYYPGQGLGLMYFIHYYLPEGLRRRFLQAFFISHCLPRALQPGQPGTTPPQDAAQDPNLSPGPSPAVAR
Method: (§1) Human 11β-HSD1-, human 11β-HSD2- and mouse 11β-HSD1-inhibitory effect • 1. Human 11β-HSD1-, Human 11β-HSD2- and Mouse 11β-HSD1-Gene Clonings and Establishment of Stably Expressing Cells
(§2) Human 11β-HSD1-, human 11β-HSD2-, and mouse 11β-HSD1-gene clonings were conducted using as a template a reverse transcription product of human-liver RNA, human-kidney RNA (CELL APPLICATIONS), and mouse-kidney RNA respectively, by means of PCR cloning with reference to nucleotide sequences of Genbank Accession Nos. NM_005525, NM_000196, and NM_008288. The obtained PCR products of about 0.9 kbp, 1.2 kbp, and 0.9 kbp were subcloned into an expression vector pcDNA3.1+/Zeo (Invitrogen).
(§3) Human 11β-HSD1- and human 11β-HSD2-expressing vectors were transfected into human kidney-derived cell line, HEK293 cells, using a transfection reagent, jet PEI (Funakoshi). Mouse 11β-HSD1 was transfected to Chinese hamster ovary-derived cell line, CHO-K1 cells. Selection was conducted with 200-400 μg/mL of zeocine (Invitrogen) to provide stably expressing-cell clones. The stably expressing cells were suspended in buffer solution A (20 mmol/L Tris-HCl, pH 7.4, 250 mmol/L sucrose, 1 mmol/L EGTA, 1 mmol/L EDTA, 1 mmol/L MgCl2), sonicated, and then stored at −80° C. • 2. Assay of Enzyme Inhibitory Activity
(§4) An enzymatic reaction was conducted using a polystyrene 96-well plate. Each well was added with 1 μL of a test agent dissolved in DMSO and then diluted (0.003 to 3 mmol/L), and further added with 10 μL of cell lysate diluted to a concentration of 0.1 mg/mL to 0.4 mg/mL. Next, 90 μL of buffer solution A containing substrate (100 nmol/L cortisone or cortisol) and coenzyme (400 μmol/L NADPH or NAD+) was added and the mixture was incubated at 37° C. for 1 hour. The enzymatic reaction was stopped by treating at 95° C. for 3 minutes. Cortisol that was present in the reaction solution was determined by a competitive ELISA shown below.
Anti-rabbit IgG antibody (Chemi-con) diluted to 2 μg/mL with carbonate buffer solution (pH 9.6) was added in 100 μL each to a 96-well immuno plate (Nunc) and immobilized by an incubation at 4° C. overnight. 50 μL of enzymatic reaction solution was put onto the plates, and further, anti-cortisol antibody (Cosmo Bio) and HRP-labeled cortisol (Cosmo Bio), diluted with buffer solution B (25 mmol/L Tris-HCl pH 7.4, 137 mmol/L NaCl, 2.68 mmol/L KCl), were added in 50 μL respectively and incubated at 4° C. overnight. After washed three times with buffer solution B containing 0.05% Tween 20, the plates were allowed to develop color by adding 100 μL of color reagent, TMB (Moss). The color reaction was stopped by 25 μL of 1 mol/L sulfuric acid and the absorbance was determined at 450 nm with a microplate reader (Molecular Device, VersaMax). […]

human 11β-HSD1 = molecular target: T2, human 11β-HSD1 (Homo sapiens, UniProt P28845); assay: Assay of enzyme inhibitory activity, human 11β-HSD1 (lysate of stably expressing HEK293 cells, cortisol ELISA); format: biochemical; conditions: Table 1; human 11β-HSD1, cell lysate, 100 nmol/L substrate, 37° C. 1 hour
T2 construct: The obtained PCR products of about 0.9 kbp, 1.2 kbp, and 0.9 kbp were subcloned into an expression vector pcDNA3.1+/Zeo; made in house
Method: as §1, §2, §3, §4
Anti-rabbit IgG antibody (Chemi-con) diluted to 2 μg/mL with carbonate buffer solution (pH 9.6) was added in 100 μL each to a 96-well immuno plate (Nunc) and immobilized by an incubation at 4° C. overnight. 50 μL of enzymatic reaction solution was put onto the plates, and further, anti-cortisol antibody (Cosmo Bio) and HRP-labeled cortisol (Cosmo Bio), diluted with buffer solution B (25 mmol/L Tris-HCl pH 7.4, 137 mmol/L NaCl, 2.68 mmol/L KCl), were added in 50 μL respectively and incubated at 4° C. overnight. After washed three times with buffer solution B containing 0.05% Tween 20, the plates were allowed to develop color by adding 100 μL of color reagent, TMB (Moss). The color reaction was stopped by 25 μL of 1 mol/L sulfuric acid and the absorbance was determined at 450 nm with a microplate reader (Molecular Device, VersaMax).
The values of human 11β-HSD1, human 11β-HSD2, and mouse 11β-HSD1 activities were subtracted from 100, and the resultant values were regarded as the respective 11β-HSD inhibition rates of example compounds. For each example compound, the value of 50% inhibitory concentration (IC50) was calculated from 11β-HSD inhibition rates at plural concentrations, for 11β-HSD1 and activities.

T2 sequence (P28845 whole entry): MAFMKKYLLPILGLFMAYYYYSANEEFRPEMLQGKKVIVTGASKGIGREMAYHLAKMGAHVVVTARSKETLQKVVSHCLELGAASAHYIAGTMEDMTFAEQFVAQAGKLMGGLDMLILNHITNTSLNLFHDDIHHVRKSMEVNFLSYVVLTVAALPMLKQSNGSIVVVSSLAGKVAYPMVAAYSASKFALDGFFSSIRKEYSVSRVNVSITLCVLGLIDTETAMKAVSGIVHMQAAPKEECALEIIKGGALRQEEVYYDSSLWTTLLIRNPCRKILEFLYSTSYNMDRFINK

SMILES	IC50 (human 11β-HSD2)	IC50 (human 11β-HSD1)
CC1=Cc2ccccc2C12CCN(C(=O)COc1ccccc1C(F)(F)F)CC2 [Example 16, 1-[2-methylspiro(indene-1,4′-piperidine)-1′-yl]-2-[2-(trifluoromethyl)phenoxy]ethanone]		0.043 µM
O=C(COc1ccccc1C(F)(F)F)N1CCC2(CC1)C(Br)=Cc1ccccc12 [Example 23, 1-[2-bromospiro(indene-1,4′-piperidine)-1′-yl]-2-[2-(trifluoromethyl)phenoxy]ethanone]		0.049 µM
CC(C)C1=Cc2ccccc2C12CCN(C(=O)COc1ccccc1C(F)(F)F)CC2 [Example 19, 1-[2-isopropylspiro(indene-1,4′-piperidine)-1′-yl]-2-[2-(trifluoromethyl)phenoxy]ethanone]		0.34 µM
CC1=CC2(CCN(C(=O)COc3ccccc3C(F)(F)F)CC2)c2ccccc21 [Example 24, 1-[3-methylspiro(indene-1,4′-piperidine)-1′-yl]-2-[2-(trifluoromethyl)phenoxy]ethanone]		0.066 µM
O=C(COc1ccccc1C(F)(F)F)N1CCC2(CC1)C(C1CC1)=Cc1ccccc12 [Example 20, 1-[2-cyclopropylspiro(indene-1,4′-piperidine)-1′-yl]-2-[2-(trifluoromethyl)phenoxy]ethanone]		0.088 µM
CCCC1=Cc2ccccc2C12CCN(C(=O)COc1ccccc1C(F)(F)F)CC2 [Example 18, 1-[2-propylspiro(indene-1,4′-piperidine)-1′-yl]-2-[2-(trifluoromethyl)phenoxy]ethanone]		0.24 µM
CCC1=Cc2ccccc2C12CCN(C(=O)COc1ccccc1C(F)(F)F)CC2 [Example 17, 1-[2-ethylspiro(indene-1,4′-piperidine)-1′-yl]-2-[2-(trifluoromethyl)phenoxy]ethanone]		0.048 µM
CCc1ccccc1OCC(=O)N1CCC2(C=Cc3ccccc32)CC1 [Example 3, 2-(2-ethylphenoxy)-1-[spiro(indene-1,4′-piperidine)-1′-yl]ethanone]	> 30 µM	0.72 µM

More lines, now with the values ahead:

IC50 (human 11β-HSD2)	IC50 (human 11β-HSD1)	SMILES
> 30 µM	0.077 µM	O=C(COc1ccccc1C(F)(F)F)N1CCC2(CC1)C(=O)Cc1ccccc12 [Example 12, 1′-[2-[2-(trifluoromethyl)phenoxy]acetyl]spiro(indene-1,4′-piperidine)-2(3H)-one]
> 30 µM	0.029 µM	O=C(COc1ccccc1C(F)(F)F)N1CCC2(C=Cc3ccccc32)CC1 [Example 1, 1-[spiro(indene-1,4′-piperidine)-1′-yl]-2-[2-(trifluoromethyl)phenoxy]ethanone]
	0.025 µM	O=C(COc1ccccc1C(F)(F)F)N1CCC2(CCc3ccccc32)CC1 [Example 10, 1-[2,3-dihydrospiro(indene-1,4′-piperidine)-1′-yl]-2-[2-(trifluoromethyl)phenoxy]ethanone]
	0.23 µM	O=C(COc1ccccc1C(F)(F)F)N1CCC2(CC1)c1ccccc1CC2O (centres unmarked) [Example 11, 1-[2-hydroxy-2,3-dihydrospiro(indene-1,4′-piperidine)-1′-yl]-2-[2-(trifluoromethyl)phenoxy]ethanone]
	0.03 µM	O=C(COc1ccccc1C(F)(F)F)N1CCC2(CC1)C(Cl)=Cc1ccccc12 [Example 22, 1-[2-chlorospiro(indene-1,4′-piperidine)-1′-yl]-2-[2-(trifluoromethyl)phenoxy]ethanone]
	0.12 µM	CC1Cc2ccccc2C12CCN(C(=O)COc1ccccc1C(F)(F)F)CC2 (centres unmarked) [Example 25, 1-[2-methyl-2,3-dihydrospiro(indene-1,4′-piperidine)-1′-yl]-2-[2-(trifluoromethyl)phenoxy]ethanone]
> 30 µM	0.11 µM	O=C(COc1ccccc1I)N1CCC2(C=Cc3ccccc32)CC1 [Example 4, 2-(2-iodophenoxy)-1-[spiro(indene-1,4′-piperidine)-1′-yl]ethanone]
	1 µM	O=C1CC2(CCN(C(=O)COc3ccccc3C(F)(F)F)CC2)c2ccccc21 [Example 13]
